# Measurements as given in publication PMC8022858, “Discovery of bone morphogenetic protein 7-derived peptide sequences that attenuate the human osteoarthritic chondrocyte phenotype” (Molecular Therapy. Methods & Clinical Development, 2021).
# Key:
# [1] = test system: human OA meniscus explants; test: PGE2 levels in culture supernatant of meniscus explants; assay type: cell-based; conditions: 24 h, relative to control (Figure 6F)
# Method: Figure 6 Peptide p[63−82] activity on OA knee joint tissues Human OA knee joint tissues were cultured for 24 h in the presence of BMP7, peptide p[63−82], or the scrambled version of peptide p[63−82] and compared to control conditions. (A) Cartilage tissues (n = 7 individual donors) were exposed to shown conditions and analyzed for COL2A1, COL10A1, and COX-2 mRNA expression by quantitative real-time PCR (normalized for 28S rRNA expression and relative to control conditions). (B) GAG release in medium from cartilage tissues (n = 5 individual donors) was determined, and data were calculated relative to the control condition. (C) PGE2 levels in culture supernatant from synovium (n = 5 donors). (D) PGE2 levels in culture supernatant from cartilage tissues from (B) (n = 5 donors). (E) PGE2 levels in culture supernatant from IPFP (n = 5 donors). (F) PGE2 levels in culture supernatant from the meniscus. Synovium, IPFP, and meniscus tissues were from the same 5 donors as the cartilage tissues in (B) and (C). PGE2 levels in conditions were calculated relative to controls for each donor. In graphs, error bars represent mean ± SEM; data are presented relative to the control condition for each time point. Statistical differences (unpaired two-tailed Student’s t test) were calculated to control condition: ∗p < 0.05, ∗∗p < 0.01, and ∗∗∗p < 0.001. […]
# [2] = test system: OA-HACs; test: PGE2 EIA in OA-HAC culture supernatant; assay type: cell-based, human; conditions: three individual OA-HAC donors, 100 nM peptide, 24 h (Figure 2F)
# Method: (§1) Figure 2 Bioactivity of BMP7-derived peptides p[63−82] and p[113−132] on OA-HACs Complete peptide library screening quantitative real-time PCR dataset for peptides p[63−82] and p[113−132] is presented. (A) SOX9, COL2A1, and NKX3-2 mRNA expression in the 18 OA-HAC pool exposed to 1,000, 100, 10, or 1 nM of peptide p[63−82] and p[113−132] is shown and presented relative to control (black bars) and alongside full-length BMP7 (white bars). (B) Similar to (A) but for chondrocyte hypertrophy-associated genes RUNX2, COL10A1, and ALPL. (C) Similar to (A) but for cartilage extracellular matrix remodeling-associated genes MMP13 and ADAMTS5 and inflammation-related genes COX-2 and IL-6. […] (G) In the same OA-HAC pool of 18 OA-HAC donors from the peptide library screening, sequence dependency of peptides p[63−82] and p[113−132] was determined by exposing the OA-HAC pool to scrambled versions of peptides p[63−82] and p[113−132] […] Error bars represent mean ± SEM, and statistical significance for peptide conditions or BMP7 versus control condition as determined by unpaired two-tailed Student’s t test is represented as ∗p < 0.05, ∗∗p < 0.01, and ∗∗∗p < 0.001.
# PGE2 levels were determined in the culture supernatant. PGE2 concentration was determined by a standardized enzyme immunoassay (EIA) according to the manufacturer’s protocol (Cayman Chemical).
# [3] = test system: OA-HACs; test: ALP activity assay in OA-HAC cultures; assay type: cell-based, human; conditions: three individual OA-HAC donors, 100 nM peptide, 24 h, normalized to total protein (Figure 2E)
# Method: as §1
# Cells were lysed in 1.5 M Tris-HCl (pH 9.0) and 2% (v/v) Triton X-100 and homogenized by sonication (Soniprep 150 MSE). […] Total protein concentration was determined by a BCA assay. […]
alkaline phosphatase (ALP) activity [3],Substance,PGE2 levels from meniscus explants [1],prostaglandin E2 (PGE2) levels in culture supernatant [2]
,"BMP7: full-length recombinant bone morphogenetic protein 7 (R&D Systems), used at 1 nM",reduced,
significant decrease,H-AAYYSEGESAFPLNSYMNAT-OH [p[63−82]],reduced,significant decrease
significant decrease,H-SVLYFDDSSNVILKKYRNMV-OH [p[113−132]],,significant decrease
